Measured values: patent publication US11000033B2, “Ketone or oxime compound, and herbicide” (NISSAN CHEMICAL CORPORATION, priority 2014, dated 2021)

Experiments:
Type in all cases: in vivo
[1] = tested on: Scirpus juncoides; assay: Test Example 2: herbicidal activity, application during weed generation in submerged conditions (symbol B); conditions: Table 23; application herbicide amount 320 g/ha; grade 0-5 by criteria of Test Example 1
Summary of the method: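 Each pot contained alluvial soil under 4 cm of water with seeds of all three weeds sown together. Following growth at 25° C. to 30° C. to the one- to two-leaf stage, the floodwater received diluted emulsion at a predetermined amount; visual assessment followed at 3 weeks.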

[2] = tested on: Echinochloa crus-galli var. crus-galli; assay: Test Example 3: herbicidal effect by foliage application, Wagner pot (symbol H); conditions: application herbicide amount 320 g/ha
Summary of the method: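 Seeds sown in alluvial soil kept under 0.1–0.5 cm water, greenhouse 25–30 °C; 14 d growth. Leaves treated by small sprayer with water-diluted emulsion at a predetermined rate. Effect graded by set scale, 3 weeks.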

[3] = tested on: Stellaria media; assay: Test Example 4: herbicidal effect by soil treatment (symbol P); conditions: 320 g/ha
Summary of the method: (§1)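 Seeds were sown in sterilized diluvial soil, covered with about 1.5 cm of soil, and the soil surface was sprayed with a water-diluted emulsion of the compound at a predetermined rate. Plants grew in a greenhouse at 25° C. to 30° C.; effects were scored visually 3 weeks after application.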

[4] = tested on: Galium spurium; assay: Test Example 4: herbicidal effect by soil treatment (symbol Q); conditions: 320 g/ha
Summary of the method: as §1

[5] = tested on: Veronica persica; assay: Test Example 4: herbicidal effect by soil treatment (symbol R); conditions: 320 g/ha
Summary of the method: as §1

[6] = tested on: corn; assay: Test Example 4: effect on crop by soil treatment (symbol c); conditions: 320 g/ha
Summary of the method: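 Soil-treatment setup: crop and weed seeds were spot-sown into sterilized diluvial soil, then buried beneath approximately 1.5 cm of it, and the boxes were housed in a 25–30° C. greenhouse.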

[7] = tested on: soybean; assay: Test Example 4: effect on crop by soil treatment (symbol d); conditions: 320 g/ha
Summary of the method: (§2)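 Diluvial soil (sterilized) in boxes; seeds placed spot-wise alongside weed species; ~1.5 cm covering soil. Greenhouse, 25–30° C.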

[8] = tested on: wheat; assay: Test Example 4: effect on crop by soil treatment (symbol e); conditions: 320 g/ha
Summary of the method: as §2

[9] = tested on: Echinochloa crus-galli var. crus-galli; assay: Test Example 5: herbicidal effect by foliage application, plastic box (symbol H); conditions: 320 g/ha, 3 weeks after application
Summary of the method: (§3)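 Greenhouse foliar test: seedlings at 14 days, grown 25° C. to 30° C. in sterilized diluvial soil; compound applied as an aqueous dilution of an emulsion; response read 3 weeks after spraying.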

[10] = tested on: Avena fatua; assay: Test Example 5: herbicidal effect by foliage application, plastic box (symbol I); conditions: 320 g/ha, 3 weeks after application
Summary of the method: as §3

[11] = tested on: Lolium multiflorum Lam.; assay: Test Example 5: herbicidal effect by foliage application, plastic box (symbol K); conditions: 320 g/ha, 3 weeks after application
Summary of the method: as §3

[12] = tested on: Apera spica-venti; assay: Test Example 5: herbicidal effect by foliage application, plastic box (symbol L); conditions: 320 g/ha, 3 weeks after application
Summary of the method: as §3

[13] = tested on: Amaranthus retroflexus; assay: Test Example 5: herbicidal effect by foliage application, plastic box (symbol N); conditions: 320 g/ha, 3 weeks after application
Summary of the method: as §3

[14] = tested on: beet; assay: Test Example 5: effect on crop by foliage application, plastic box (symbol f); conditions: 320 g/ha, 3 weeks after application
Summary of the method: (§4)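 A greenhouse held between 25° C. and 30° C. was used to grow plants sown spot-wise, beneath ~1.5 cm of soil, in boxes of sterilized diluvial soil.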

[15] = tested on: rapeseed; assay: Test Example 5: effect on crop by foliage application, plastic box (symbol g); conditions: 320 g/ha, 3 weeks after application
Summary of the method: as §4

| Structure (SMILES) | Herbicidal effect grade, B: Scirpus juncoides [1] | herbicidal effect on H (Echinochloa crus-galli var. crus-galli), grade 0-5 [2] | P: Stellaria media, herbicidal effect grade [3] | Q: Galium spurium, herbicidal effect grade [4] | R: Veronica persica, herbicidal effect grade [5] | c: corn, effect grade on crop [6] | d: soybean, effect grade on crop [7] | e: wheat, effect grade on crop [8] | H: Echinochloa crus-galli var. crus-galli, herbicidal effect (criteria 0-5) [9] | I: Avena fatua, herbicidal effect (criteria 0-5) [10] | K: Lolium multiflorum Lam., herbicidal effect (criteria 0-5) [11] | L: Apera spica-venti, herbicidal effect (criteria 0-5) [12] | N: Amaranthus retroflexus, herbicidal effect (criteria 0-5) [13] | f: beet, effect on crop (criteria 0-5) [14] | g: rapeseed, effect on crop (criteria 0-5) [15] |
| --- | --- | --- | --- | --- | --- | --- | --- | --- | --- | --- | --- | --- | --- | --- | --- |
| CON=C(C)CC1CC(OS(=O)(=O)CC[Si](C)(C)C)=C(c2c(C)cc(C)cc2C)C1=O (stereo not drawn) [1-144] | 4 (Herbicidal ratio of 70% or higher and lower than 90%) | 5 (Herbicidal ratio of 90% or more (almost completely withered)) | 0 (Herbicidal ratio of 5% or lower (almost no effect)) | 0 (Herbicidal ratio of 5% or lower (almost no effect)) | 0 (Herbicidal ratio of 5% or lower (almost no effect)) | 3 (Herbicidal ratio of 40% or higher and lower than 70%) | 0 (Herbicidal ratio of 5% or lower (almost no effect)) | 0 (Herbicidal ratio of 5% or lower (almost no effect)) | 5 (Herbicidal ratio of 90% or more (almost completely withered)) | 5 (Herbicidal ratio of 90% or more (almost completely withered)) | 5 (Herbicidal ratio of 90% or more (almost completely withered)) | 5 (Herbicidal ratio of 90% or more (almost completely withered)) | 1 (Herbicidal ratio of 5% or higher and lower than 20%) | 2 (Herbicidal ratio of 20% or higher and lower than 40%) | 4 (Herbicidal ratio of 70% or higher and lower than 90%) |
| CON=C(C)CC1CC(OC(=O)N2CCCC2)=C(c2c(C)cc(C)cc2C)C1=O (stereo not drawn) [1-150] | 3 (Herbicidal ratio of 40% or higher and lower than 70%) | 5 (Herbicidal ratio of 90% or more (almost completely withered)) | 0 (Herbicidal ratio of 5% or lower (almost no effect)) | 0 (Herbicidal ratio of 5% or lower (almost no effect)) | 0 (Herbicidal ratio of 5% or lower (almost no effect)) | 0 (Herbicidal ratio of 5% or lower (almost no effect)) | 0 (Herbicidal ratio of 5% or lower (almost no effect)) | 1 (Herbicidal ratio of 5% or higher and lower than 20%) | 5 (Herbicidal ratio of 90% or more (almost completely withered)) | 5 (Herbicidal ratio of 90% or more (almost completely withered)) | 5 (Herbicidal ratio of 90% or more (almost completely withered)) | 5 (Herbicidal ratio of 90% or more (almost completely withered)) | 0 (Herbicidal ratio of 5% or lower (almost no effect)) | 0 (Herbicidal ratio of 5% or lower (almost no effect)) | 4 (Herbicidal ratio of 70% or higher and lower than 90%) |
| CON=C(C)CC1CC(OC(=O)N2CCCCC2)=C(c2c(C)cc(C)cc2C)C1=O (stereo not drawn) [1-151] | 1 (Herbicidal ratio of 5% or higher and lower than 20%) | 4 (Herbicidal ratio of 70% or higher and lower than 90%) | 0 (Herbicidal ratio of 5% or lower (almost no effect)) | 0 (Herbicidal ratio of 5% or lower (almost no effect)) | 0 (Herbicidal ratio of 5% or lower (almost no effect)) | 0 (Herbicidal ratio of 5% or lower (almost no effect)) | 0 (Herbicidal ratio of 5% or lower (almost no effect)) | 0 (Herbicidal ratio of 5% or lower (almost no effect)) | 5 (Herbicidal ratio of 90% or more (almost completely withered)) | 5 (Herbicidal ratio of 90% or more (almost completely withered)) | 5 (Herbicidal ratio of 90% or more (almost completely withered)) | 5 (Herbicidal ratio of 90% or more (almost completely withered)) | 0 (Herbicidal ratio of 5% or lower (almost no effect)) | 2 (Herbicidal ratio of 20% or higher and lower than 40%) | 4 (Herbicidal ratio of 70% or higher and lower than 90%) |
| CON=C(C)CC1CC(OC(=O)N2CCN(C)CC2)=C(c2c(C)cc(C)cc2C)C1=O (stereo not drawn) [1-152] | 0 (Herbicidal ratio of 5% or lower (almost no effect)) | 5 (Herbicidal ratio of 90% or more (almost completely withered)) | 0 (Herbicidal ratio of 5% or lower (almost no effect)) | 0 (Herbicidal ratio of 5% or lower (almost no effect)) | 0 (Herbicidal ratio of 5% or lower (almost no effect)) | 0 (Herbicidal ratio of 5% or lower (almost no effect)) | 0 (Herbicidal ratio of 5% or lower (almost no effect)) | 0 (Herbicidal ratio of 5% or lower (almost no effect)) | 5 (Herbicidal ratio of 90% or more (almost completely withered)) | 4 (Herbicidal ratio of 70% or higher and lower than 90%) | 5 (Herbicidal ratio of 90% or more (almost completely withered)) | 5 (Herbicidal ratio of 90% or more (almost completely withered)) | 3 (Herbicidal ratio of 40% or higher and lower than 70%) | 0 (Herbicidal ratio of 5% or lower (almost no effect)) | 4 (Herbicidal ratio of 70% or higher and lower than 90%) |
| C=CCN(CC=C)C(=O)OC1=C(c2c(C)cc(C)cc2C)C(=O)C(CC(C)=NOC)C1 (stereo not drawn) [1-153] | 1 (Herbicidal ratio of 5% or higher and lower than 20%) | 5 (Herbicidal ratio of 90% or more (almost completely withered)) | 0 (Herbicidal ratio of 5% or lower (almost no effect)) | 0 (Herbicidal ratio of 5% or lower (almost no effect)) | 0 (Herbicidal ratio of 5% or lower (almost no effect)) | 0 (Herbicidal ratio of 5% or lower (almost no effect)) | 0 (Herbicidal ratio of 5% or lower (almost no effect)) | 2 (Herbicidal ratio of 20% or higher and lower than 40%) | 5 (Herbicidal ratio of 90% or more (almost completely withered)) | 5 (Herbicidal ratio of 90% or more (almost completely withered)) | 5 (Herbicidal ratio of 90% or more (almost completely withered)) | 5 (Herbicidal ratio of 90% or more (almost completely withered)) | 4 (Herbicidal ratio of 70% or higher and lower than 90%) | 0 (Herbicidal ratio of 5% or lower (almost no effect)) | 4 (Herbicidal ratio of 70% or higher and lower than 90%) |
